Measurements taken from US12371454B2, “Cyclic peptide compound having Kras inhibitory action” (priority 2019, dated 2025).
Starred links: 1 amine or outer side, 2 acyl side, 3 side chain; linkers in the order of their positions; H or OH if unused. Positions of bridges follow the written chain, without caps; N, C: chain ends. Non-standard residues stand in square brackets, D forms with d. Residues, ends and D or L forms follow the SMILES beside them. *: point of attachment. hPhe(3,5-F2-4-CF3) = N[C@@H](CCc1cc(F)c(C(F)(F)F)c(F)c1)C(=O)O; hPhe(3-Cl-4-CF3) = N[C@@H](CCc1ccc(C(F)(F)F)c(Cl)c1)C(=O)O; X38 = CN([C@@H](Cc1cccc(OC(F)(F)F)c1)C(=O)[*:2])[*:1]; NMePhe(4-CF3) = CN[C@@H](Cc1ccc(C(F)(F)F)cc1)C(=O)O; NMePhe(3-CN) = CN[C@@H](Cc1cccc(C#N)c1)C(=O)O; NMePhe(3-OMe) = CN[C@@H](Cc1cccc(OC)c1)C(=O)O; NMePhe(3-Br) = CN[C@@H](Cc1cccc(Br)c1)C(=O)O; NMePhe(4-Br) = CN[C@@H](Cc1ccc(Br)cc1)C(=O)O; NMePhe(4-Me) = CN[C@@H](Cc1ccc(C)cc1)C(=O)O; NMePhe(2-Cl) = CN[C@@H](Cc1ccccc1Cl)C(=O)O; NMePhe(4-F) = CN[C@@H](Cc1ccc(F)cc1)C(=O)O; NMeGly(cPent) = CN[C@H](C(=O)O)C1CCCC1; NMe4Pal = CN[C@@H](Cc1ccncc1)C(=O)O; NMeCha = CN[C@@H](CC1CCCCC1)C(=O)O; NMeChg = CN[C@H](C(=O)O)C1CCCCC1; NMeI = CC[C@H](C)[C@H](NC)C(=O)O; dNMeF = CN[C@H](Cc1ccccc1)C(=O)O; NMeD = CN[C@@H](CC(=O)O)C(=O)O; NMeL = CN[C@@H](CC(C)C)C(=O)O; d(β3hP) = O=C(O)C[C@H]1CCCN1; NMeNva = CCC[C@H](NC)C(=O)O; NMeV = CN[C@H](C(=O)O)C(C)C; d(β3hA) = C[C@@H](N)CC(=O)O; Morpholide = C1CN(*)CCO1; NMeA = CN[C@@H](C)C(=O)O; Piperidide = C1CCN(*)CC1; Pyrrolidide = C1CCN(*)C1; dNMeA = CN[C@H](C)C(=O)O; Ac5c = NC1(C(=O)O)CCCC1; Aze = O=C(O)[C@@H]1CCN1; Sar = CNCC(=O)O

Molecular target: T1, Kras and SOS1 (biotin-tagged human Kras loaded with GDP, His-tagged human SOS1) (Homo sapiens, UniProt P01116, G12D)
T1 construct: made in house; host or cells: E. coli (stated for Kras only)
Assay: Protein-protein interaction inhibition between Kras and SOS1 (KrasGl2D-SOS PPI) using AlphaScreen
Format: binding
Details: AlphaScreen; biotin-tagged human Kras loaded with GDP, His-tagged human SOS1; read-out: KRAS G12D-SOS PPI IC50
Procedure, shortened: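 Energy transfer from nickel-chelate donor beads bound to His-SOS1 to streptavidin acceptor beads bound to biotin-Kras, expressed in E. coli and loaded with GDP after purification, was monitored. Donors were excited at 680 nm; singlet oxygen reaching acceptors gave emission read at 520-620 nm.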

T1 sequence (P01116 1-188 isoform P01116-2 G12D): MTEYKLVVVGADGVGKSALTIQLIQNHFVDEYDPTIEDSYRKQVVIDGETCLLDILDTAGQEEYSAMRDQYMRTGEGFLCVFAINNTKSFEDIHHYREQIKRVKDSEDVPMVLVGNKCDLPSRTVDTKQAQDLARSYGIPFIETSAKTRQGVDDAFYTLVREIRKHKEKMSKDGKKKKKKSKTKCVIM

Compound | IC50 [nM]
CC[C@H](C)[C@@H]1NC(=O)[C@H](CC(C)C)N(C)C(=O)C[C@@H](C(=O)N(C)C)N(C)C(=O)[C@H]([C@@H](C)CC)N(C)C(=O)C2(CCCC2)NC(=O)[C@H](Cc2ccc(Br)cc2)N(C)C(=O)[C@H](CCc2ccc(C(F)(F)F)c(Cl)c2)NC(=O)CN(C)C(=O)[C@H](Cc2ccc(C)cc2)N(C)C(=O)[C@@H]2CCN2C(=O)[C@H](C)N(C)C1=O [Compound 1964] ([NMeL]I[NMeA][Aze][NMePhe(4-Me)][Sar][hPhe(3-Cl-4-CF3)][NMePhe(4-Br)][Ac5c][NMeI][NMeD]-NMe2; lactam N-11) | 36
CC[C@H](C)[C@@H]1NC(=O)[C@H](CC(C)C)N(C)C(=O)C[C@@H](C(=O)N(C)C)N(C)C(=O)[C@H]([C@@H](C)CC)N(C)C(=O)C2(CCCC2)NC(=O)[C@H](Cc2cccc(OC(F)(F)F)c2)N(C)C(=O)[C@H](CCc2ccc(C(F)(F)F)c(Cl)c2)NC(=O)CN(C)C(=O)[C@H](Cc2ccc(C)cc2)N(C)C(=O)[C@@H]2CCN2C(=O)[C@H](C)N(C)C1=O [Compound 1970] ([NMeL]I[NMeA][Aze][NMePhe(4-Me)][Sar][hPhe(3-Cl-4-CF3)][X38][Ac5c][NMeI][NMeD]-NMe2; lactam N-11) | 52
CC[C@H](C)[C@@H]1NC(=O)[C@H](CC(C)C)N(C)C(=O)C[C@@H](C(=O)N(C)C)N(C)C(=O)[C@H]([C@@H](C)CC)N(C)C(=O)[C@H](C)NC(=O)[C@H](Cc2ccncc2)N(C)C(=O)[C@H](CCc2ccc(C(F)(F)F)c(Cl)c2)NC(=O)CN(C)C(=O)[C@H](Cc2ccc(C)cc2)N(C)C(=O)[C@@H]2CCN2C(=O)[C@H](C)N(C)C1=O [Compound 1973] ([NMeL]I[NMeA][Aze][NMePhe(4-Me)][Sar][hPhe(3-Cl-4-CF3)][NMe4Pal]A[NMeI][NMeD]-NMe2; lactam N-11) | 7.1
CC[C@H](C)[C@@H]1NC(=O)[C@H](CC(C)C)N(C)C(=O)C[C@@H](C(=O)N2CCOCC2)N(C)C(=O)[C@H]([C@@H](C)CC)N(C)C(=O)C2(CCCC2)NC(=O)[C@@H]2CCCN2C(=O)[C@H](CCc2ccc(C(F)(F)F)c(Cl)c2)NC(=O)CN(C)C(=O)[C@H](CC2CCCCC2)N(C)C(=O)CN(C)C(=O)CN(C)C1=O [Compound 1979] ([NMeL]I[Sar][Sar][NMeCha][Sar][hPhe(3-Cl-4-CF3)]P[Ac5c][NMeI][NMeD]-Morpholide; lactam N-11) | 0.64
CC[C@H](C)[C@@H]1NC(=O)[C@H](C)N(C)C(=O)C[C@@H](C(=O)N(C)C)N(C)C(=O)[C@H]([C@@H](C)CC)N(C)C(=O)C2(CCCC2)NC(=O)[C@H](Cc2cccc(C#N)c2)N(C)C(=O)[C@H](CCc2ccc(C(F)(F)F)c(Cl)c2)NC(=O)CN(C)C(=O)[C@H](Cc2ccc(C)cc2)N(C)C(=O)[C@@H]2CCN2C(=O)[C@H](C)N(C)C1=O [Compound 1981] ([NMeA]I[NMeA][Aze][NMePhe(4-Me)][Sar][hPhe(3-Cl-4-CF3)][NMePhe(3-CN)][Ac5c][NMeI][NMeD]-NMe2; lactam N-11) | 5.1
CC[C@H](C)[C@@H]1NC(=O)[C@H](CC(C)C)N(C)C(=O)C[C@@H](C(=O)N(C)C)N(C)C(=O)[C@H](C2CCCC2)N(C)C(=O)[C@H](C(C)C)NC(=O)[C@H](Cc2ccncc2)N(C)C(=O)[C@H](CCc2ccc(C(F)(F)F)c(Cl)c2)NC(=O)CN(C)C(=O)[C@H](CC2CCCCC2)N(C)C(=O)[C@@H]2CCN2C(=O)[C@H](C)N(C)C1=O [Compound 1982] ([NMeL]I[NMeA][Aze][NMeCha][Sar][hPhe(3-Cl-4-CF3)][NMe4Pal]V[NMeGly(cPent)][NMeD]-NMe2; lactam N-11) | 47
CC[C@H](C)[C@@H]1NC(=O)[C@H](C)N(C)C(=O)C[C@@H](C(=O)N(C)C)N(C)C(=O)[C@H]([C@@H](C)CC)N(C)C(=O)C2(CCCC2)NC(=O)[C@H](Cc2ccc(F)cc2)N(C)C(=O)[C@H](CCc2cc(F)c(C(F)(F)F)c(F)c2)NC(=O)CN(C)C(=O)[C@H](Cc2ccc(C(F)(F)F)cc2)N(C)C(=O)[C@@H]2CCN2C(=O)[C@H](C)N(C)C1=O [Compound 1986] ([NMeA]I[NMeA][Aze][NMePhe(4-CF3)][Sar][hPhe(3,5-F2-4-CF3)][NMePhe(4-F)][Ac5c][NMeI][NMeD]-NMe2; lactam N-11) | 11
CC[C@H](C)[C@@H]1NC(=O)[C@H](CC(C)C)N(C)C(=O)C[C@@H](C(=O)N2CCCCC2)N(C)C(=O)[C@H]([C@@H](C)CC)N(C)C(=O)C2(CCCC2)NC(=O)[C@@H](Cc2ccccc2)N(C)C(=O)[C@H](CCc2ccc(C(F)(F)F)c(Cl)c2)NC(=O)CN(C)C(=O)[C@H](Cc2ccc(C)cc2)N(C)C(=O)[C@@H]2CCN2C(=O)[C@H](C)N(C)C1=O [Compound 1989] ([NMeL]I[NMeA][Aze][NMePhe(4-Me)][Sar][hPhe(3-Cl-4-CF3)][dNMeF][Ac5c][NMeI][NMeD]-Piperidide; lactam N-11) | 460
CC[C@H](C)[C@@H]1NC(=O)[C@H](CC(C)C)N(C)C(=O)C[C@@H](C(=O)N(C)C)N(C)C(=O)[C@H]([C@@H](C)CC)N(C)C(=O)C2(CCCC2)NC(=O)[C@H](Cc2cccc(OC)c2)N(C)C(=O)[C@H](CCc2ccc(C(F)(F)F)c(Cl)c2)NC(=O)CN(C)C(=O)[C@H](Cc2ccc(C)cc2)N(C)C(=O)[C@@H]2CCN2C(=O)[C@H](C)N(C)C1=O [Compound 1991] ([NMeL]I[NMeA][Aze][NMePhe(4-Me)][Sar][hPhe(3-Cl-4-CF3)][NMePhe(3-OMe)][Ac5c][NMeI][NMeD]-NMe2; lactam N-11) | 9.2
CC[C@H](C)[C@@H]1NC(=O)[C@H](C)N(C)C(=O)C[C@@H](C(=O)N2CCCCC2)N(C)C(=O)[C@H]([C@@H](C)CC)N(C)C(=O)C2(CCCC2)NC(=O)[C@@H](Cc2ccccc2)N(C)C(=O)[C@H](CCc2cc(F)c(C(F)(F)F)c(F)c2)NC(=O)CN(C)C(=O)[C@H](Cc2ccc(C(F)(F)F)cc2)N(C)C(=O)[C@@H]2CCN2C(=O)[C@H](C)N(C)C1=O [Compound 1992] ([NMeA]I[NMeA][Aze][NMePhe(4-CF3)][Sar][hPhe(3,5-F2-4-CF3)][dNMeF][Ac5c][NMeI][NMeD]-Piperidide; lactam N-11) | 280
CC[C@H](C)[C@@H]1NC(=O)[C@H](C)N(C)C(=O)C[C@@H](C(=O)N2CCCCC2)N(C)C(=O)[C@H]([C@@H](C)CC)N(C)C(=O)C2(CCCC2)NC(=O)[C@@H](Cc2ccccc2)N(C)C(=O)[C@H](CCc2ccc(C(F)(F)F)c(Cl)c2)NC(=O)CN(C)C(=O)[C@H](Cc2ccc(C)cc2)N(C)C(=O)[C@@H]2CCN2C(=O)[C@H](C)N(C)C1=O [Compound 1997] ([NMeA]I[NMeA][Aze][NMePhe(4-Me)][Sar][hPhe(3-Cl-4-CF3)][dNMeF][Ac5c][NMeI][NMeD]-Piperidide; lactam N-11) | 220
CC[C@H](C)[C@@H]1NC(=O)[C@H](C)N(C)C(=O)C[C@@H](C(=O)N(C)C)N(C)C(=O)[C@H]([C@@H](C)CC)N(C)C(=O)C2(CCCC2)NC(=O)[C@H](Cc2cccc(Br)c2)N(C)C(=O)[C@H](CCc2ccc(C(F)(F)F)c(Cl)c2)NC(=O)CN(C)C(=O)[C@H](Cc2ccc(C)cc2)N(C)C(=O)[C@@H]2CCN2C(=O)[C@H](C)N(C)C1=O [Compound 2000] ([NMeA]I[NMeA][Aze][NMePhe(4-Me)][Sar][hPhe(3-Cl-4-CF3)][NMePhe(3-Br)][Ac5c][NMeI][NMeD]-NMe2; lactam N-11) | 15
CCC[C@H]1C(=O)N[C@@H]([C@@H](C)CC)C(=O)N(C)CC(=O)N(C)CC(=O)N(C)[C@@H](CC2CCCCC2)C(=O)N(C)CC(=O)N[C@@H](CCc2ccc(C(F)(F)F)c(Cl)c2)C(=O)N2CCC[C@H]2C(=O)NC2(CCCC2)C(=O)N(C)[C@@H](C2CCCCC2)C(=O)N(C)[C@H](C(=O)N2CCCC2)CC(=O)N1C [Compound 2001] ([NMeNva]I[Sar][Sar][NMeCha][Sar][hPhe(3-Cl-4-CF3)]P[Ac5c][NMeChg][NMeD]-Pyrrolidide; lactam N-11) | 0.48
CC[C@H](C)[C@@H]1NC(=O)[C@H](CC(C)C)N(C)C(=O)C[C@@H](C(=O)N(C)C)N(C)C(=O)[C@H]([C@@H](C)CC)N(C)C(=O)C2(CCCC2)NC(=O)[C@H](Cc2cccc(C#N)c2)N(C)C(=O)[C@H](CCc2ccc(C(F)(F)F)c(Cl)c2)NC(=O)CN(C)C(=O)[C@H](Cc2ccc(C)cc2)N(C)C(=O)[C@@H]2CCN2C(=O)[C@H](C)N(C)C1=O [Compound 2002] ([NMeL]I[NMeA][Aze][NMePhe(4-Me)][Sar][hPhe(3-Cl-4-CF3)][NMePhe(3-CN)][Ac5c][NMeI][NMeD]-NMe2; lactam N-11) | 3
CC[C@H](C)[C@@H]1NC(=O)[C@H](CC(C)C)N(C)C(=O)C[C@H]2CCCN2C(=O)[C@H]([C@@H](C)CC)N(C)C(=O)C2(CCCC2)NC(=O)[C@@H]2CCCN2C(=O)[C@H](CCc2ccc(C(F)(F)F)c(Cl)c2)NC(=O)CN(C)C(=O)[C@H](Cc2ccc(C)cc2)N(C)C(=O)[C@@H]2CCN2C(=O)[C@H](C)N(C)C1=O [Compound 2003] (cyclo([Ac5c][NMeI][d(β3hP)][NMeL]I[NMeA][Aze][NMePhe(4-Me)][Sar][hPhe(3-Cl-4-CF3)]P)) | 8.6
CC[C@H](C)[C@@H]1NC(=O)[C@H](C)N(C)C(=O)C[C@@H](C)NC(=O)[C@H](C(C)C)N(C)C(=O)C2(CCCC2)NC(=O)[C@@H]2CCCN2C(=O)[C@H](CCc2ccc(C(F)(F)F)c(Cl)c2)NC(=O)[C@@H](C)N(C)C(=O)[C@H](CC2CCCCC2)N(C)C(=O)CN(C)C(=O)[C@@H]2CCN2C1=O [Compound 2010] (cyclo([Ac5c][NMeV][d(β3hA)][NMeA]I[Aze][Sar][NMeCha][dNMeA][hPhe(3-Cl-4-CF3)]P)) | 220
CC[C@H](C)[C@@H]1NC(=O)[C@H](C)N(C)C(=O)C[C@@H](C(=O)N(C)C)N(C)C(=O)[C@H]([C@@H](C)CC)N(C)C(=O)C2(CCCC2)NC(=O)[C@H](Cc2ccccc2Cl)N(C)C(=O)[C@H](CCc2ccc(C(F)(F)F)c(Cl)c2)NC(=O)CN(C)C(=O)[C@H](Cc2ccc(C)cc2)N(C)C(=O)[C@@H]2CCN2C(=O)[C@H](C)N(C)C1=O [Compound 2011] ([NMeA]I[NMeA][Aze][NMePhe(4-Me)][Sar][hPhe(3-Cl-4-CF3)][NMePhe(2-Cl)][Ac5c][NMeI][NMeD]-NMe2; lactam N-11) | 17
